Values of other authors in publication PMC4726456 (Cell, 2014).

Key:
tubulin = conditions: ref Mulder et al., 2009
cellular microtubules = conditions: ref Piperno et al., 1987; Takemura et al., 1992

Row | Compound | Induction of tubulin rings (tubulin) | Effect on microtubule acetylation levels in cells (cellular microtubules)
1 | Dolastatin-10 | induces tubulin rings by curving individual protofilaments | 
2 | CC(=O)O[C@H]1C(=O)[C@@]2(C)[C@H]([C@H](OC(=O)c3ccccc3)[C@]3(O)C[C@H](OC(=O)[C@H](O)[C@@H](NC(=O)c4ccccc4)c4ccccc4)C(C)=C1C3(C)C)[C@]1(OC(C)=O)CO[C@@H]1C[C@@H]2O [taxol] |  | increases acetylation levels
